Source: patent US6461997B1, “Triazole sulfones having herbicidal activity” (Monsanto Technology LLC, priority 1999, dated 2002)

Columns and labels:
ECHCG (barnyardgrass) = assay: Pre-emergence herbicidal activity, warm season; assay type: in vivo, Echinochloa crus-galli; conditions: for Pre-emergence activity (GR80) ECHCG: GR80 = lowest tested rate (300, 100, 30, 10 g/ha) with 80% or greater inhibition, approx. 14 days after treating, 30/21° C.
How it was run: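 Activity is expressed as the rate giving 80% inhibition, with 300, 100, 30 and 10 g/ha typically tested. An asterisk marks activity short of 80% at the top rate. Warm-season grasses were held at 30/21 °C; cool-season blackgrass and wild buckwheat at 18/13 °C; scoring at about 14 days.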

[1] = test system: GALAP (catchweed bedstraw); assay: Pre-emergence herbicidal activity, cool season; assay type: in vivo, Galium aparine; conditions: lowest tested rate with 80% or greater inhibition; rates 300, 100, 30, 10 g/ha; about 14 days
How it was run: (§1)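 GR80 values derive from percent inhibition relative to untreated plants, read roughly 14 days after sowing and pre-emergence soil-surface treatment (compound in 50:50 acetone/water; rates typically 10, 30, 100, 300 g/ha). Warm-season weeds grew at 30/21° C day/night, cool-season ones at 18/13° C; an asterisk marks activity without reaching 80% at the highest rate.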

ALOMY (blackgrass) = assay: Pre-emergence herbicidal activity, cool season; assay type: in vivo, Alopecurus myosuroides; conditions: GR80 = lowest tested rate (300, 100, 30, 10 g/ha) with 80% or greater inhibition; approx. 14 days after treating; 18/13° C.
How it was run: as §1

SOLNI (black nightshade) = assay: Pre-plant incorporated (PPI) herbicidal activity, warm season; assay type: in vivo, Solanum nigrum
Experimental: (§2) In another set of tests, the pre-plant incorporated (PPI) activity of compounds of this invention was evaluated on the same species as for the pre-emergence tests described above. In the PPI tests the following procedure, designed to simulate PPI application, was used.
(§3) A pre-prepared topsoil mixture (described above) was placed in a pot and compacted to a depth of 1.0 to 1.25 cm from the top of the pot. Seeds of each of several monocotyledonous and dicotyledonous annual plant species were placed on top of the soil. A sufficient quantity of soil to cover the seeds and level fill the pot was weighed into an open container. A known amount of the test compound was dissolved or suspended in an organic solvent and applied by spraying to this cover soil. The cover soil was thoroughly mixed to distribute the test compound throughout the cover soil, and was then applied as a cover layer over the seeds. Untreated soil was used as a cover layer for control pots. After treatment the plants were placed in a greenhouse where they received 0.64 cm of overhead irrigation. All subsequent watering consisted of a light overhead mist and/or subirrigation as needed for germination and growth. Tables 9 and 10 below relate to warm season plant species which were placed after pre-emergence treatment in a greenhouse with a 30/21° C. day/night temperature regime. Tables 11 and 12 below relates to cool season plant species placed after pre-emergence treatment in a greenhouse or growth chamber with an 18/13° C. day/night temperature regime. Only the compounds of Examples 1, 6, 8, 11, 13 and 15-20 were included in PPI tests.
(§4) Approximately 14 days after planting and treating, the plants were observed and herbicidal efficacy recorded as percent inhibition by comparison with untreated plants.

AMARE (redroot pigweed) = assay: as above; assay type: in vivo, Amaranthus retroflexus
Experimental: as §2, §3, §4

[2] = test system: CHEAL (common lambsquarters); assay: as above; assay type: in vivo, Chenopodium album; conditions: for Percent inhibition CHEAL: PPI application
Experimental: as §2, §3, §4

[3] = test system: PANMI (wild proso millet); assay: as above; assay type: in vivo, Panicum miliaceum
Experimental: as §2, §3, §4

SETFA (giant foxtail) = assay: as above; assay type: in vivo, Setaria faberi
Experimental: as §2, §3, §4

[4] = test system: AGSST (creeping bentgrass); assay: Pre-plant incorporated (PPI) herbicidal activity, cool season; assay type: in vivo, Agrostis stolonifera
Experimental: as §2, §3, §4

wheat (TRZAW) = assay: Selectivity test, PPI, cool season crop; assay type: in vivo, Triticum aestivum; conditions: PPI application
Experimental: as §3, §4
Additional pre-emergence and PPI tests were conducted by the procedures described above, on warm and cool season weed species in the presence of crop species, to assess herbicidal selectivity. Crop species included in warm season tests were corn (Zea mays, ZEAMX), rice (Oryza sativa, ORYSA) and soybean (Glycine max, GLYMX). Crop species included in cool season tests were wheat (Triticum aestivum, TRZAW), barley (Hordeunm vulgare, HORVX) and oilseed rape (Brassica napus, BRSNS).
Tables 15 and 16 relate to pre-emergence and PPI tests respectively on warm season species. Table 17 relates to pre-emergence tests on cool season species.

[5] = pre-plant incorporated, GR80 = lowest tested rate with 80% or greater inhibition, approx. 14 days after treating, 30/21° C.
[6] = pre-plant incorporated, lowest tested rate with 80% or greater inhibition, about 14 days

`CCN(CC)C(=O)n1cnc(S(=O)(=O)C(F)(F)F)n1` [Example 2] was tested, and the “Pre-emergence activity (GR80) ECHCG” value (ECHCG (barnyardgrass)) was 30 g/ha, the “Pre-emergence activity GR80, GALAP” value [1] was 100 g/ha and the “Pre-emergence activity (GR80) ALOMY” value (ALOMY (blackgrass)) was 100 g/ha. The “Percent inhibition SOLNI” value (SOLNI (black nightshade); PPI application, 30 g/ha) was 30%, the “Percent inhibition SOLNI” value (SOLNI (black nightshade); PPI application, 100 g/ha) was 90% and the “Percent inhibition SOLNI” value (SOLNI (black nightshade); PPI application, 300 g/ha) was 100%. The “Percent inhibition SOLNI” value (SOLNI (black nightshade); PPI application, 900 g/ha) was 90%, the “Percent inhibition AMARE” value (AMARE (redroot pigweed); PPI application, 30 g/ha) was 100% and the “Percent inhibition AMARE” value (AMARE (redroot pigweed); PPI application, 100 g/ha) was 95%. For the same compound, the “Percent inhibition AMARE” value (AMARE (redroot pigweed); PPI application, 300 g/ha) was 100%, the “Percent inhibition AMARE” value (AMARE (redroot pigweed); PPI application, 900 g/ha) was 100% and the “Percent inhibition CHEAL” value ([2]; 30 g/ha) was 90%. For the same compound, the “Percent inhibition CHEAL” value ([2]; 100 g/ha) was 95%, the “Percent inhibition CHEAL” value ([2]; 300 g/ha) was 100% and the “Percent inhibition CHEAL” value ([2]; 900 g/ha) was 100%. The “Percent inhibition PANMI” value ([3]; PPI application, 30 g/ha) was 20%, the “Percent inhibition PANMI” value ([3]; PPI application, 100 g/ha) was 80% and the “Percent inhibition PANMI” value ([3]; PPI application, 300 g/ha) was 100%. For the same compound, the “Percent inhibition SETFA” value (SETFA (giant foxtail); PPI application, 30 g/ha) was 20%, the “Percent inhibition SETFA” value (SETFA (giant foxtail); PPI application, 100 g/ha) was 100% and the “Percent inhibition SETFA” value (SETFA (giant foxtail); PPI application, 300 g/ha) was 100%. The “Percent inhibition SETFA” value (SETFA (giant foxtail); PPI application, 900 g/ha) was 90%, the “Percent inhibition AGSST” value ([4]; weed, PPI application, 30 g/ha) was 100% and the “Percent inhibition AGSST” value ([4]; weed, PPI application, 100 g/ha) was 99%. The “Percent inhibition AGSST” value ([4]; weed, PPI application, 300 g/ha) was 100%, the “Percent inhibition AGSST” value ([4]; weed, PPI application, 900 g/ha) was 100% and the “Percent inhibition TRZAW” value (wheat (TRZAW); 30 g/ha) was 0%. For the same compound, the “Percent inhibition TRZAW” value (wheat (TRZAW); 100 g/ha) was 0%, the “Percent inhibition TRZAW” value (wheat (TRZAW); 300 g/ha) was 30% and the “Percent inhibition TRZAW” value (wheat (TRZAW); 900 g/ha) was 30%.
With `CCN(CC)C(=O)n1cnc(S(=O)(=O)C(F)(F)Br)n1` [Example 1, 3-(bromodifluoromethylsulfonyl)-1-(N,N-diethylcarbamoyl)-1,2,4-triazole] the inhibition at 10 g/ha (ECHCG (barnyardgrass); Echinochloa crus-galli, pre-emergence application, 10 g/ha, read-out: Percent inhibition, weed ECHCG) was 0%, the inhibition at 30 g/ha (ECHCG (barnyardgrass); Echinochloa crus-galli, pre-emergence application, 30 g/ha, read-out: Percent inhibition, weed ECHCG) was 10% and the inhibition at 100 g/ha (ECHCG (barnyardgrass); Echinochloa crus-galli, pre-emergence application, 100 g/ha, read-out: Percent inhibition, weed ECHCG) was 45%. For the same compound, the inhibition at 300 g/ha (ECHCG (barnyardgrass); Echinochloa crus-galli, pre-emergence application, 300 g/ha, read-out: Percent inhibition, weed ECHCG) was 80%, the inhibition at 900 g/ha (ECHCG (barnyardgrass); Echinochloa crus-galli, pre-emergence application, 900 g/ha, read-out: Percent inhibition, weed ECHCG) was 95% and the “Pre-emergence activity (GR80) ECHCG” value (ECHCG (barnyardgrass)) was 30 g/ha. The “Pre-emergence activity GR80, GALAP” value [1] was 100 g/ha, the “Pre-emergence activity (GR80) ALOMY” value (ALOMY (blackgrass)) was 300 g/ha and the inhibition at 10 g/ha (SOLNI (black nightshade); Solanum nigrum, PPI application, 10 g/ha, read-out: Percent inhibition SOLNI) was 0%. The inhibition at 30 g/ha (SOLNI (black nightshade); Solanum nigrum, PPI application, 30 g/ha, read-out: Percent inhibition SOLNI) was 0%, the inhibition at 100 g/ha (SOLNI (black nightshade); Solanum nigrum, PPI application, 100 g/ha, read-out: Percent inhibition SOLNI) was 0% and the inhibition at 300 g/ha (SOLNI (black nightshade); Solanum nigrum, PPI application, 300 g/ha, read-out: Percent inhibition SOLNI) was 75%. For the same compound, the inhibition at 900 g/ha (SOLNI (black nightshade); Solanum nigrum, PPI application, 900 g/ha, read-out: Percent inhibition SOLNI) was 100%, the “PPI activity (GR80) SOLNI” value (SOLNI (black nightshade); [5]) was 30 g/ha and the inhibition at 10 g/ha (AMARE (redroot pigweed); Amaranthus retroflexus, PPI application, 10 g/ha, read-out: Percent inhibition AMARE) was 0%. For the same compound, the inhibition at 30 g/ha (AMARE (redroot pigweed); Amaranthus retroflexus, PPI application, 30 g/ha, read-out: Percent inhibition AMARE) was 60%, the inhibition at 100 g/ha (AMARE (redroot pigweed); Amaranthus retroflexus, PPI application, 100 g/ha, read-out: Percent inhibition AMARE) was 80% and the inhibition at 300 g/ha (AMARE (redroot pigweed); Amaranthus retroflexus, PPI application, 300 g/ha, read-out: Percent inhibition AMARE) was 100%. The inhibition at 900 g/ha (AMARE (redroot pigweed); Amaranthus retroflexus, PPI application, 900 g/ha, read-out: Percent inhibition AMARE) was 100%, the “PPI activity (GR80) AMARE” value (AMARE (redroot pigweed); [5]) was 30 g/ha and the “PPI activity (GR80) CHEAL” value [2, 5] was 300 g/ha. It also gave an inhibition at 10 g/ha ([3]; Panicum miliaceum, PPI application, 10 g/ha, read-out: Percent inhibition PANMI) of 0%, an inhibition at 30 g/ha ([3]; Panicum miliaceum, PPI application, 30 g/ha, read-out: Percent inhibition PANMI) of 60% and an inhibition at 100 g/ha ([3]; Panicum miliaceum, PPI application, 100 g/ha, read-out: Percent inhibition PANMI) of 99%. The inhibition at 300 g/ha ([3]; Panicum miliaceum, PPI application, 300 g/ha, read-out: Percent inhibition PANMI) was 100%, the inhibition at 900 g/ha ([3]; Panicum miliaceum, PPI application, 900 g/ha, read-out: Percent inhibition PANMI) was 100% and the “PPI activity GR80, PANMI” value [3, 6] was 30 g/ha. For the same compound, the inhibition at 10 g/ha (SETFA (giant foxtail); Setaria faberi, PPI application, 10 g/ha, read-out: Percent inhibition SETFA) was 100%, the inhibition at 30 g/ha (SETFA (giant foxtail); Setaria faberi, PPI application, 30 g/ha, read-out: Percent inhibition SETFA) was 70% and the inhibition at 100 g/ha (SETFA (giant foxtail); Setaria faberi, PPI application, 100 g/ha, read-out: Percent inhibition SETFA) was 100%. For the same compound, the inhibition at 300 g/ha (SETFA (giant foxtail); Setaria faberi, PPI application, 300 g/ha, read-out: Percent inhibition SETFA) was 100%, the inhibition at 900 g/ha (SETFA (giant foxtail); Setaria faberi, PPI application, 900 g/ha, read-out: Percent inhibition SETFA) was 100% and the “PPI activity GR80, SETFA” value (SETFA (giant foxtail); [6]) was 30 g/ha. For the same compound, the inhibition at 30 g/ha ([4]; Agrostis stolonifera, weed, PPI application, 30 g/ha, read-out: Percent inhibition AGSST) was 100%, the inhibition at 100 g/ha ([4]; Agrostis stolonifera, weed, PPI application, 100 g/ha, read-out: Percent inhibition AGSST) was 100% and the inhibition at 300 g/ha ([4]; Agrostis stolonifera, weed, PPI application, 300 g/ha, read-out: Percent inhibition AGSST) was 100%. For the same compound, the inhibition at 900 g/ha ([4]; Agrostis stolonifera, weed, PPI application, 900 g/ha, read-out: Percent inhibition AGSST) was 100%, the “PPI activity GR80, AGSST” value [4, 6] was 30 g/ha and the inhibition at 30 g/ha (wheat (TRZAW); Triticum aestivum, 30 g/ha, read-out: Percent inhibition TRZAW) was 0%. It also gave an inhibition at 100 g/ha (wheat (TRZAW); Triticum aestivum, 100 g/ha, read-out: Percent inhibition TRZAW) of 0%, an inhibition at 300 g/ha (wheat (TRZAW); Triticum aestivum, 300 g/ha, read-out: Percent inhibition TRZAW) of 10% and an inhibition at 900 g/ha (wheat (TRZAW); Triticum aestivum, 900 g/ha, read-out: Percent inhibition TRZAW) of 30%.
